# Target: H1047R PIK3CA enzyme (Homo sapiens, UniProt P42336, H1047R)
# Assay: ADP-Glo Biochemical PIK3CA Kinase Assay
# Sequence of H1047R PIK3CA enzyme (P42336 whole entry H1047R): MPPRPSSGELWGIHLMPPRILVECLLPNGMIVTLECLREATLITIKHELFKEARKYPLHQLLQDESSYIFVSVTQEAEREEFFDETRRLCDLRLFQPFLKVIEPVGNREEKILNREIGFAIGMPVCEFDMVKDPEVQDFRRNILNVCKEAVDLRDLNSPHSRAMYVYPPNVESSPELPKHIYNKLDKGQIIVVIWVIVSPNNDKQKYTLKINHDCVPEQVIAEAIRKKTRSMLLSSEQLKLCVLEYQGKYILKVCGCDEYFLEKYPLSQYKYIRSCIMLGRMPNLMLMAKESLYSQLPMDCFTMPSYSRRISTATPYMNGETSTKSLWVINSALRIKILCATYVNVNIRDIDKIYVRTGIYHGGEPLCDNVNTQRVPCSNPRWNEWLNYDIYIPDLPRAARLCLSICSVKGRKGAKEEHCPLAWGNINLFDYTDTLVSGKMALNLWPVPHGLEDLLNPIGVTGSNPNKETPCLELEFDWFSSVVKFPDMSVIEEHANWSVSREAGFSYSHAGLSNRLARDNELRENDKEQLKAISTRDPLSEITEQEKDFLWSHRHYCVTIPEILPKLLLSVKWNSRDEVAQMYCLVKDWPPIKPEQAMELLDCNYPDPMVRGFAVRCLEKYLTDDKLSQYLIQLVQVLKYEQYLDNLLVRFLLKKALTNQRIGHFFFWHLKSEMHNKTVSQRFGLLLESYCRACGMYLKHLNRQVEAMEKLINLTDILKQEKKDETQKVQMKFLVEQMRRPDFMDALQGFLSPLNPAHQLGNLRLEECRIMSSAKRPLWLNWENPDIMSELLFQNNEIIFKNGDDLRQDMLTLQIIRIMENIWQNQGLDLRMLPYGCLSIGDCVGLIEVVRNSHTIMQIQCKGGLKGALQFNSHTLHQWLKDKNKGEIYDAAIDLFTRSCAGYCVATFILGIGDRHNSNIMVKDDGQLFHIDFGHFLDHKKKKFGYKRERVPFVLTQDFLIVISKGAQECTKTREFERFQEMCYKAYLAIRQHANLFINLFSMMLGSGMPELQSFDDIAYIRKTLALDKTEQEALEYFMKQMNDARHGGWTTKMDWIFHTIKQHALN
# Sequence of H1047R PIK3CA enzyme (P27986 whole entry partner): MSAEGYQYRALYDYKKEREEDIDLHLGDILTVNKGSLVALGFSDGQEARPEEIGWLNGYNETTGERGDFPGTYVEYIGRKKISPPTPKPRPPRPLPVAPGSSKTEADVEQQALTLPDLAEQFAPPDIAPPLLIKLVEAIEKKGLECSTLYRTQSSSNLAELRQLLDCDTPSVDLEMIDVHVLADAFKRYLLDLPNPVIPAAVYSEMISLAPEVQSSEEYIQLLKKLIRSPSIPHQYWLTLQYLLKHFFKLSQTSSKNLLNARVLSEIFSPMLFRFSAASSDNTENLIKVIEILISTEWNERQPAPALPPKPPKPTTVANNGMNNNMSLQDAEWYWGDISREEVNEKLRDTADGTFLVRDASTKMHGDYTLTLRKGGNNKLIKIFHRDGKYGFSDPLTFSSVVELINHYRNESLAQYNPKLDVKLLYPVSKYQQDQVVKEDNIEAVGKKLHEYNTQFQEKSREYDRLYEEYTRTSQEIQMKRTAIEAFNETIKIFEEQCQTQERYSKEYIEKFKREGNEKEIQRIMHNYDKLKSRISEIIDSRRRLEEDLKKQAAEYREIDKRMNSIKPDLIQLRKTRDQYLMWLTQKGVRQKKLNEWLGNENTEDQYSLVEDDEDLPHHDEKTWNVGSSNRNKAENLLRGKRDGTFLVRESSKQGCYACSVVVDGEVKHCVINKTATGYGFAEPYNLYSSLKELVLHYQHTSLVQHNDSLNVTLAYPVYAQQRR
row,SMILES,IC50 [nM]
1,CC(c1ccccc1O)N(C)C(=O)Nc1cc(Br)cc2c1C(c1cc(F)ccc1Cl)NC2=O (stereo not shown) [Compound I-1459],10000 to 100000
2,O=C(Nc1cc(-c2ccc3nnc(Cl)n3c2)cc2c1C(c1cc(F)ccc1Cl)NC2=O)c1cc(F)cc(C(F)(F)F)c1 (stereo not shown) [Compound I-1574],≤ 100
3,NCc1ncc(NC(=O)c2cc(F)cc(C(F)(F)F)c2)c2c1C(=O)NC2c1cc(F)ccc1Cl (stereo not shown) [Compound I-480],500 to 1000
4,Cc1ccccc1C1NCCc2c(Br)ccc(NC(=O)c3cc(F)cc(C(F)(F)F)c3)c21 (stereo not shown) [Compound I-1963],10000 to 100000
5,"CN1C(=O)CC[C@H]1COc1cc(NC(=O)c2cc(F)cc(C(F)(F)F)c2)c2c(c1)C(=O)N[C@@H]2c1cc(F)ccc1Cl (single isomer, unassigned) [Compound I-1568]",1000 to 10000
6,N[C@@H]1CCC[C@H](C(=O)Nc2cc(-c3ccc4ncnn4c3)cc3c2C(c2cc(F)ccc2Cl)NC3=O)C1 (mixture of isomers) [Compound I-1844],10000 to 100000
7,O=C1NC(c2cc(F)ccc2Cl)c2c(NC(=O)C(O)c3ccccc3)cc(-c3ccc4ncnn4c3)cc21 (stereo not shown) [Compound I-1724],10000 to 100000
8,CC(=O)N1CCC(C2NC(=O)c3cccc(NC(=O)c4cc(F)cc(C(F)(F)F)c4)c32)CC1 (stereo not shown) [Compound I-1818],10000 to 100000
9,CC(C)(O)c1cc(NC(=O)c2cc(F)cc(C(F)(F)F)c2)c2c(c1)C(=O)NC2c1ccccc1C(F)F (stereo not shown) [Compound I-355],≤ 100
10,"C[C@@H](C#N)Oc1cc(NC(=O)c2cc(F)cc(C(F)(F)F)c2)c2c(c1)C(=O)N[C@H]2c1cc(F)ccc1Cl (single isomer, unassigned) [Compound I-2009]",≤ 100
11,CC(=O)N1CCCCC1C1NC(=O)c2cccc(NC(=O)c3cc(F)cc(C(F)(F)F)c3)c21 (stereo not shown) [Compound I-1674],10000 to 100000
12,"C[C@@H](O)c1cc(-c2ccc3ncnn3c2)cc2c1[C@@H](c1cc(F)ccc1Cl)NC2=O (single isomer, unassigned) [Compound I-2230]",10000 to 100000
13,O=C1NC(c2cc(F)ccc2Cl)c2c(Nc3ccn(CCO)n3)cc(-c3ccc4ncnn4c3)cc21 (stereo not shown) [Compound I-1994],10000 to 100000
14,O=C(CC1(C(F)(F)F)CC1)Nc1cc(-c2ccc3ncnn3c2)cc2c1C(c1cc(F)ccc1Cl)NC2=O (stereo not shown) [Compound I-2044],1000 to 10000
15,"O=C1N[C@@H](c2cc(F)ccc2Cl)c2c(NC(=O)N3C[C@H](O)c4cccc(F)c43)cccc21 (single isomer, unassigned) [Compound I-2209]",10000 to 100000
16,"N#Cc1cc(NC(=O)N2C[C@H](O)c3cc(F)ccc32)c2c(c1)C(=O)N[C@H]2c1cc(F)ccc1Cl (single isomer, unassigned) [Compound I-2491]",100 to 500
17,O=C(Cc1ccccc1)Nc1cc(-c2ccc3ncnn3c2)cc2c1C(c1cc(F)ccc1Cl)NC2=O (stereo not shown) [Compound I-1665],10000 to 100000
18,O=C(Nc1cc(-c2ccncc2F)nc2c1C(c1cc(F)ccc1Cl)NC2=O)c1cc(F)cc(Cl)c1 (stereo not shown) [Compound I-502],≤ 100
19,CNS(=O)(=O)Cc1cc(NC(=O)c2cc(F)cc(C(F)(F)F)c2)c2c(c1)C(=O)N[C@@H]2c1cc(F)ccc1Cl [Compound I-1533],100 to 500
20,O=C(Nc1cc(Br)cc2c1C(c1cc(F)ccc1Cl)NC2=O)c1cc(Cl)c(Cl)s1 (stereo not shown) [Compound I-1384],500 to 1000
21,O=C(Nc1cc(-c2cn(C(F)F)cn2)cc2c1[C@H](c1cc(F)ccc1Cl)NC2=O)c1cc(F)cc(C(F)(F)F)c1 [Compound I-1919],≤ 100

row,SMILES,IC50 [nM]
1,O=C(Nc1cc(Br)cc2c1C(c1cc(F)ccc1Cl)NC2=O)c1cc(F)ccc1C(F)F (stereo not shown) [Compound I-837],1000 to 10000
2,O=C(Nc1cc(C2(O)COCC2O)cc2c1C(c1cc(F)ccc1Cl)NC2=O)c1cc(F)cc(C(F)(F)F)c1 (stereo not shown) [Compound I-1141],100 to 500
3,"O=C1NC(c2cccc(F)c2F)c2c(NC(=O)c3csc4ccccc34)ccnc21 (stereo not shown) [Compound I-15, N-(5-(2,3-Difluorophenyl)-7-oxo-6,7-dihydro-5H-pyrrolo[3,4-b]pyridin-4-yl)benzo[b]thiophene-3-carboxamide]",100 to 500
4,O=C(CO)Nc1cc(NC(=O)c2cc(F)cc(C(F)(F)F)c2)c2c(c1)C(=O)N[C@@H]2c1cc(F)ccc1Cl [Compound I-512],100 to 500
5,O=C(CC1CCCC(O)C1)Nc1cc(-c2ccc3ncnn3c2)cc2c1C(c1cc(F)ccc1Cl)NC2=O (stereo not shown) [Compound I-1960],10000 to 100000
6,"C[C@@]1(C(=O)Nc2cc(Br)cc3c2[C@@H](c2cc(F)ccc2Cl)NC3=O)CCC[C@H](C(F)(F)F)C1 (single isomer, unassigned) [Compound I-2264]",100 to 500
7,Cc1ccccc1C1NC(=O)c2cccc(NC(=O)N3CC(C)c4ccccc43)c21 (stereo not shown) [Compound I-95],100 to 500
8,Cc1ccc(C(=O)Nc2cc(Br)cc3c2C(c2cc(F)ccc2Cl)NC3=O)cc1 (stereo not shown) [Compound I-519],10000 to 100000
9,"Cc1ccccc1C1NC(=O)c2cccc(NC(=O)c3nnc4ccccn34)c21 (stereo not shown) [Compound I-328, N-(1-oxo-3-(o-tolyl)isoindolin-4-yl)-[1,2,4]triazolo[4,3-a]pyridine-3-carboxamide]",10000 to 100000
10,O=C(Nc1cccc2c1C(C1CCCN1)NC2=O)c1cc(F)cc(C(F)(F)F)c1 (racemic) [Compound I-1956],10000 to 100000
11,"O=C1N[C@@H](c2cc(F)ccc2Cl)c2c(NC(=O)N3C[C@](O)(C(F)F)c4cc(F)ccc43)cccc21 (single isomer, unassigned) [Compound I-2557]",1000 to 10000
12,O=C(Nc1cc(Cn2cccn2)cc2c1[C@H](c1cc(F)ccc1Cl)NC2=O)c1cc(F)cc(C(F)(F)F)c1 (stereo in doubt) [Compound I-1615],≤ 100
13,O=C(Nc1cccc2c1C(CC1CC=CC1)NC2=O)c1cc(F)cc(C(F)(F)F)c1 (stereo not shown) [Compound I-2322],10000 to 100000
14,O=C1NC(c2cc(F)ccc2Cl)c2c(NC(=O)[C@H]3C[C@H](O)C[C@@H](C(F)(F)F)C3)cc(Br)cc21 (stereo partly shown) [Compound I-2080],1000 to 10000
15,O=C(Nc1cccc2c1C(c1ccccc1Br)NC2=O)c1cc(F)cc(C(F)(F)F)c1 (stereo not shown) [Compound I-325],100 to 500
16,"[2H]C([2H])(c1cc(NC(=O)c2cc(F)cc(C(F)(F)F)c2)c2c(c1)C(=O)N[C@H]2c1cc(F)ccc1Cl)S(C)(=O)=O (single isomer, unassigned) [Compound I-1789]",≤ 100
17,O=C1NC(c2cc(F)ccc2Cl)c2c(NC(=O)[C@H]3CCC[C@@H](C(F)(F)F)C3)cccc21 (stereo partly shown) [Compound I-2079],500 to 1000
18,Nc1nc(NC(=O)c2cc(F)cc(C(F)(F)F)c2)c2c(n1)C(=O)NC2c1ccccc1Cl (stereo not shown) [Compound I-184],500 to 1000
19,"Cc1ccccc1C1NC(=O)c2c(N)ncc(NC(=O)c3cc(F)cc(C(F)(F)F)c3)c21 (stereo not shown) [Compound I-262, N-(4-Amino-3-oxo-1-(o-tolyl)-2,3-dihydro-1H-pyrrolo[3,4-c]pyridin-7-yl)-3-fluoro-5-(trifluoromethyl)benzamide]",100 to 500
20,"N#Cc1cnn(-c2cc(NC(=O)N3C[C@@H](O)c4cc(F)ccc43)c3c(c2)C(=O)N[C@H]3c2cc(F)ccc2Cl)c1 (single isomer, unassigned) [Compound I-2405]",≤ 100
21,O=C1NC(c2cc(F)ccc2Cl)c2c(COc3ccccc3)cc(-c3ccc4ncnn4c3)cc21 (stereo not shown) [Compound I-2017],10000 to 100000

row,SMILES,IC50 [nM]
1,"O=C1N[C@H](c2cc(F)ccc2Cl)c2c(NC(=O)N3C[C@@H](O)c4cc(F)ccc43)cc(-c3ccc(=O)n(C(F)F)c3)cc21 (single isomer, unassigned) [Compound I-2449]",100 to 500
2,O=C(Nc1cc(C2=CN3CCN=C3C=C2)cc2c1[C@H](c1cc(F)ccc1Cl)NC2=O)c1cc(F)cc(C(F)(F)F)c1 [Compound I-2090],≤ 100
3,O=C1NC(c2ccncc2Cl)c2c(NC(=O)c3csc4ccccc34)cccc21 (stereo not shown) [Compound I-101],1000 to 10000
4,CN(C)S(=O)(=O)Cc1cc(NC(=O)c2cc(F)cc(C(F)(F)F)c2)c2c(c1)C(=O)N[C@H]2c1cc(F)ccc1Cl [Compound I-1489],≤ 100
5,Nc1cnc2ccc(-c3cc(NC(=O)c4cc(F)cc(C(F)(F)F)c4)c4c(c3)C(=O)NC4c3cc(F)ccc3Cl)cn12 (stereo not shown) [Compound I-1409],≤ 100
6,O=C(Nc1cc(-c2ccc3nc(C4CC4)nn3c2)cc2c1C(c1cc(F)ccc1Cl)NC2=O)c1cc(F)cc(C(F)(F)F)c1 (stereo not shown) [Compound I-1624],≤ 100
7,CS(=O)(=O)CCc1cc(NC(=O)c2cc(F)cc(C(F)(F)F)c2)c2c(c1)C(=O)NC2c1cc(F)ccc1Cl (stereo not shown) [Compound I-1476],≤ 100
8,"O=C1N[C@@H](c2cc(F)ccc2Cl)c2c(NC(=O)N3C[C@@](O)(C(F)(F)F)c4cc(F)ccc43)ccc(-n3cccn3)c21 (single isomer, unassigned) [Compound I-2495]",10000 to 100000
9,Nc1cc(NC(=O)c2cc(F)cc(C(F)(F)F)c2)c2c(c1)C(=O)NC2c1ccccc1Cl (stereo not shown) [Compound I-393],≤ 100
10,O=C1NC(c2cc(F)ccc2Cl)c2c(NC(=O)C3CCS(=O)(=O)CC3)cc(-c3ccc4ncnn4c3)cc21 (stereo not shown) [Compound I-2045],1000 to 10000
11,Cc1ccccc1C1NC(=O)c2cccc(NC(=O)c3nc(C)c4ccc(Cl)cn34)c21 (stereo not shown) [Compound I-285],10000 to 100000
12,"N#Cc1cc(NC(=O)N2C[C@@](O)(C(F)(F)F)c3ccccc32)c2c(c1)C(=O)N[C@H]2c1cc(F)ccc1Cl (single isomer, unassigned) [Compound I-2563]",1000 to 10000
13,O=C1NC(c2cc(F)ccc2Cl)c2c(NC(=O)N3CCC(C(F)(F)F)C3)cc(Br)cc21 (stereo not shown) [Compound I-543],1000 to 10000
14,C=CCCCOc1cc(NC(=O)c2cc(F)cc(C(F)(F)F)c2)c2c(c1)C(=O)NC2c1cc(F)ccc1Cl (stereo not shown) [Compound I-1234],500 to 1000
15,Cc1ccccc1C1NC(=O)c2c(CNC(=O)C(F)(F)F)ccc(NC(=O)c3csc4ccccc34)c21 (stereo not shown) [Compound I-223],100 to 500
16,CC(C)(O)COc1cc(NC(=O)c2cc(F)cc(C(F)(F)F)c2)c2c(c1)C(=O)NC2c1cc(F)ccc1Cl (stereo not shown) [Compound I-709],≤ 100
17,CP(C)(=O)c1cc(NC(=O)c2cc(F)cc(C(F)(F)F)c2)c2c(c1)C(=O)NC2c1cc(F)ccc1Cl (stereo not shown) [Compound I-395],≤ 100
18,O=C(Nc1cccc2c1C(c1ccnc(O)c1)NC2=O)c1cc(F)cc(C(F)(F)F)c1 (stereo not shown) [Compound I-658],10000 to 100000
19,"N#CC[C@@H](O)c1cc(NC(=O)c2cc(F)cc(C(F)(F)F)c2)c2c(c1)C(=O)N[C@H]2c1cc(F)ccc1Cl (single isomer, unassigned) [Compound I-1393]",≤ 100

# Reference: patent US12581252B2, “Substituted pyrrolo[3,4-b]pyridines as PI3K-α inhibitors” (Relay Therapeutics, Inc., priority 2020, dated 2026)
